From patent US20250289788A1, “HALOALKYL SULFONANILIDE COMPOUND AND HERBICIDE CONTAINING THE SAME” (SDS BIOTECH K.K., priority 2022, published 2025)

What was measured:
Assay type in all cases: in vivo
[1] = test system: Ammannia multiflora (AM); assay: Comparative Example: herbicidal efficacy test of treatment during growth stage under flooding conditions; conditions: treatment during growth stage (14 days after sowing), day 21 after treatment
Source text: (§1) The control compound a is described as Compound No. III-1 on page 245 of PLT 5, and the control compound b is described as Compound No. III-9 on page 245 of PTL 5. […] As an example, herbicidal efficacy against critical paddy field weeds such as Monochoria vaginalis (MV) and Ammannia multiflora (AM) as well as Oryza sativa (OS) chemical damage were compared and are specifically described below as a Comparative Example.
(§2) [Comparative Example] Herbicidal Efficacy Test of Treatment During Growth Stage […] Under Flooding Conditions
(§3) After each 40-cm^2 plastic cup was loaded with puddled paddy field soil, seeds of each of Monochoria vaginalis (MV) or Ammannia multiflora (AM) were sown and grown in a greenhouse. After plants were grown for 14 days, one rice plant (variety: Nippon-bare) at the 2-leaf stage was transplanted at a transplanting depth of 1 cm. Water was flooded to a depth of 3 cm, and wettable powder containing the present invention compound, which had been adjusted according to Formulation Example 1, or each control compound was diluted with distilled water and applied dropwise to the water surface. The amount applied was 125, 63, or 31 g of active ingredient per hectare. The test was conducted in two series. On day 21 after treatment, the herbicidal efficacy and chemical damage were examined according to the following criteria.
(§4) 9-10 . . . Herbicidal activity “Maximum”, 90% or higher herbicidal efficacy or chemical damage
(§5) 7 to 8 . . . Herbicidal activity “high”, 70% or higher and less than 90% herbicidal efficacy or chemical damage
(§6) 5 to 6 . . . Herbicidal activity “medium”, 50% or higher and less than 70% herbicidal efficacy or chemical damage
(§7) 0 to 4 . . . Herbicidal activity “none to low”, 0% or higher and less than 50% herbicidal efficacy or chemical damage

[2] = test system: Monochoria vaginalis (MV); assay: as above; conditions: treatment during growth stage (14 days after sowing), day 21 after treatment
Source text: as §1, §2, §3, §4, §5, §6, §7

[3] = test system: Oryza sativa (OS); assay: Comparative Example: chemical damage to transplanted rice under flooding conditions; conditions: applied dropwise to water surface, day 21 after treatment
Source text: as §1, §2, §3, §4, §5, §6, §7

[4] = test system: Schoenoplectiella juncoides (SJ); assay: Test Example 1: herbicidal effect test using paddy field flooding treatment; conditions: dose 16 g a.i./ha, water surface application, 21 days after treatment
Description: (§8) <Test Example 1> Herbicidal Effect Test Using Paddy Field Flooding Treatment
(§9) After each 40-cm^2 plastic cup was loaded with puddled paddy field soil, seeds of each of the following species were sown and grown in a greenhouse: Echinochloa crus-galli var. oryzicola (EC), Schoenoplectiella juncoides (SJ), Monochoria vaginalis (MV), or Ammannia multiflora (AM). After plants were grown for 14 days, water was flooded to a depth of 3 cm, and a 10% wettable powder, which had been adjusted according to Formulation Example 1, was diluted with distilled water and applied dropwise to the water surface. The amount applied was 1000, 500, 250, 125, 63, 31, or 16 g of active ingredient per hectare. The test was conducted in two series. Herbicidal efficacy (degree (%) of suppression of growth of terrestrial part: 100 (complete death) to 0 (no action)) was investigated at 21 days after the treatment.

[5] = test system: Echinochloa crus-galli var. oryzicola (EC); assay: as above; conditions: dose 1000 g a.i./ha, water surface application, 21 days after treatment
Description: as §8, §9

SMILES	herbicidal efficacy AM (score 0-10) ([1]; 31 g a.i./ha)	herbicidal efficacy AM (score 0-10) ([1]; 63 g a.i./ha)	herbicidal efficacy AM (score 0-10) ([1]; 125 g a.i./ha)	herbicidal efficacy MV (score 0-10) ([2]; 31 g a.i./ha)	herbicidal efficacy MV (score 0-10) ([2]; 63 g a.i./ha)	herbicidal efficacy MV (score 0-10) ([2]; 125 g a.i./ha)	chemical damage to transplanted rice OS (score 0-10) ([3]; 31 g a.i./ha)	chemical damage to transplanted rice OS (score 0-10) ([3]; 63 g a.i./ha)	chemical damage to transplanted rice OS (score 0-10) ([3]; 125 g a.i./ha)	herbicidal efficacy (degree (%) of suppression of growth of terrestrial part) [4] [%]	herbicidal efficacy (degree (%) of suppression of growth of terrestrial part) [5] [%]
O=C1c2ccccc2CCN1Cc1ccccc1NS(=O)(=O)C(F)(F)F [Compound 3-1]	10	10	10	10	10	10	0	0	0		
CC=CC(=O)N(c1ccccc1CN1CCc2c(F)ccc(F)c2C1=O)S(=O)(=O)C(F)(F)F [Compound 3-116]										≥ 80	
CCOC(=O)N(c1ccccc1CN1CCc2ccccc2C1=O)S(=O)(=O)C(F)(F)F [Compound 3-139]	10	10	10	7	10	10	0	0	0		
O=C1Cc2cc(F)ccc2N1Cc1ccccc1NS(=O)(=O)C(F)(F)F [Compound 8-2]											≥ 80
O=C1CCCCN1Cc1ccccc1NS(=O)(=O)C(F)(F)F [Compound a]	10	10	10	10	10	10	6	10	10		
CCOC(=O)N(c1ccccc1CN1CCCCC1=O)S(=O)(=O)C(F)(F)F [Compound b]	10	10	10	7	10	10	3	8	10		
